The nature of this data set: Cytotoxicity against mouse MDR1 transfected L5178YvMDR cell line.

One may read the IC50 as the concentration that inhibits the measured activity by half. A high value points to a need for much substance.

The compound `O=C(Oc1ccccc1)N1C2C3C4N(C(=O)Oc5ccccc5)C5C(C1[C@]5(CO)[C@H]3c1ccccc1)[C@@H](c1ccccc1)[C@@]24CO` [1,7-dihydroxymethyl-6,12-diphenyl-3,9-diphenoxycarbonyl-3,9-diazahexacyclo[6.4.0.0(2.7)0(4.11)0(5.10)]dodecane] returned an IC50 of 21 µM.

With `CN1C2C3C4N(C)C5C(C1[C@]5(CO)[C@H]3c1ccccc1)[C@@H](c1ccccc1)[C@@]24CO` [1,7-dihydroxymethyl-3,9-dimethyl-6,12-diphenyl-3,9-diazahexacyclo[6.4.0.0 2.7.0 4.11.0. 5.10]dodecane], inhibition was half-maximal at 7.5 µM (IC50).

Regarding `OC[C@]12C3C4C1N(Cc1ccccc1)C1C(C(N3Cc3ccccc3)[C@]1(CO)[C@H]4c1ccccc1)[C@H]2c1ccccc1` [3,9-dibenzyl-1,7-dihydroxymethyl-6,12-diphenyl-3,9-diazahexacyclo[6.4.0.0(2.7)0(4.11)0(5.10)]dodecane], the midpoint of inhibition, the IC50, lay at 13.3 µM.

On to `CC(C)(C)OC(=O)N1C2C3C4N(C(=O)OC(C)(C)C)C5C(C1[C@]5(CO)[C@H]3c1ccccc1)[C@@H](c1ccccc1)[C@@]24CO` [3,9-di(tert.)butoxycarbonyl-1,7-dihydroxymethyl-6,12-diphenyl-3,9-diazahexacyclo[6.4.0.0(2.7)0(4.11)0(5.10)]dodecane], for which the IC50 stood at 3.2 µM.
